Counter-ions that a name gives are not always drawn. Like-named read-outs stand apart in the source and are kept apart here.
What was measured:
[1] = 25°C; ref Marco-Contelles et al., 2005; Saigal et al., 2013; cited from earlier work
[2] = Determination of solubility in different solvents (shaken 24 h, HPLC); type: physicochemical; conditions: 25 °C, thermodynamic from solid, mean ± SD
Description: Then they were shaken for 24 h with 100 rpm at 25°C. At last, the supernatant was directly injected into HPLC after high speed centrifugation (3,000 rpm for 10 min).

[3] = In vivo drug release / pharmacokinetics, plasma galantamine by HPLC-ESI-MS/MS; parameters: species or system Sprague-Dawley (SD) rats; AUC0-t / AUC0-∞: unit not given here; conditions: 24 mg/kg
Description: Healthy Sprague-Dawley (SD) rats weighing 200–210 g were supplied by the Experimental Animal Breeding Center of Jinan Pengyue Co., Ltd. (Jinan, China). Before the drug administration, all rats were fasted for 12 h. But they were free access to diet and water throughout the study ([Zhang et al., 2019]). This study conformed to the Guide for the Care and Use of Laboratory Animals.
The study groups were carried out with twelve rats, which were randomly divided into two groups each with six rats. […] The blood samples of both groups were obtained via the orbital venous plexus and collected into heparinized tubes before and after dosing at 1 h, 3 h, 6 h, 12 h, 1 day, 2 days, 3 days, 4 days, 6 days, 8 days, 10 days, 12 days, […], 16 days, 18 days, 20 days. Other eighteen rats were randomly divided into the placebo group, negative group and oral administration group of six rats each. The placebo group received […] microspheres suspension in diluent at a single dose of 20 mg/kg by i.m., and the blood samples of this group were obtained the same as group I. The negative group was also carried out without any treatment, and the blood samples of this group were obtained the same as group I. The oral administration group was performed with GLT-PM (24 mg/kg), which was infused to stomach of rats. The blood samples of oral administration group were obtained before and after dosing at 15 min, 30 min, 45 min, 1 h, 1.5 h, 2 h, 3 h, 4 h, 6 h, 8 h, 12 h, 24 h, 48 h, 72 h. All blood samples were centrifuged immediately at 4,500 rpm for 10 min, and the plasma samples were separated into EP tubes and stored at −80°C until analysis ([Jiang et al., 2014]; [Zhang et al., 2019]).
After thawing at room temperature, 50 μL plasma samples were separately added into a […] centrifuge tube with the addition of 150 μL of acetonitrile. This mixture was vortex mixed for 1 min and centrifuged at 12700 rpm for 10 min. Then 100 μL supernate was mixed with 100 μL deionized water, and they was injected into vials for analysis ([Zhang et al., 2019]).
AB Sciex QTrap 6,500 + triple-quadrupole tandem mass spectrometer (Applied Biosystem Inc., Foster City, Calif, United States) was connected to Waters Acquity UPLC H-Class HPLC system (Waters Inc., Milford, Massachusetts, United States) via electro-spray ionization (ESI) interface. LC separation was performed on a Waters BEH C8 column (2.1 × 50 mm I.D., 1.7 μm) with mobile phase A (1 mmol/L ammonium acetate solution) and phase B (mixture of acetonitrile and methanol, 4:1, v/v) at 40°C, which was used with gradient elution as shown in Table 2 ([Suresha et al., 2014]). Quantitative analyses were performed in positive ion mode on a 6500 Q-trap mass analyzer (AB Sciex, Framingham, MA) coupled with electrospray ion source. Multiple reaction monitoring (MRM) mode was used for the quantification with ion spray voltage set at 5500 V, curtain gas 35 psi, […], and the interface heater temperature 450°C. […]
The plasma concentration-time data were analyzed with non-compartmental model by Phoenix WinNonlin 8.1 software (Pharsight Corporation, United States) to obtain the pharmacokinetic parameters, which included the area under the plasma concentration-time curve (AUC), half-life (T1/2) and mean residence time (MRT). The maximum plasma drug concentration (Cmax) and the time required to reach Cmax (Tmax) were directly read from the plasma concentration-time data.

[4] = n = 3, read-out: Solubility, benzyl alcohol
[5] = n = 3, read-out: Solubility, deionized water
[6] = n = 3, read-out: Solubility, dichloromethane
[7] = n = 3, read-out: Solubility, methanol
[8] = Oral administration: rats, plasma galantamine
[9] = Sprague-Dawley, rat, plasma, po

| Compound | Solubility [1] [µg/mL] | solubility at 24 h [2, 4] [µg/mL] | solubility at 24 h [2, 5] [µg/mL] | solubility at 24 h [2, 6] [µg/mL] | solubility at 24 h [2, 7] [µg/mL] | AUC0-t [3, 8] | AUC0-∞ [3, 8] | Cmax [3, 9] [ng/mL] | Tmax [3, 9] [h] | half-life [3, 9] [h] |
| --- | --- | --- | --- | --- | --- | --- | --- | --- | --- | --- |
| COc1ccc2c3c1O[C@H]1C[C@@H](O)C=C[C@@]31CCN(C)C2 [Galantamine hydrobromide, reference compound] | 5170 | 1570 ± 190 | 4320 ± 370 | 320 ± 30 | 820 ± 90 |  |  |  |  |  |
| COc1ccc2c3c1O[C@H]1C[C@@H](O)C=C[C@@]31CCN(C)C2.COc1ccc2c3c1O[C@H]1C[C@@H](O)C=C[C@@]31CCN(C)C2.O=C(O)c1cc2ccccc2c(Cc2c(O)c(C(=O)O)cc3ccccc23)c1O [GLT-PM, galantamine pamoate] |  | 357300 ± 210 | 200 ± 20 | 8720 ± 520 | 1010 ± 210 | 532.54 ± 73.08 | 532.91 ± 72.92 | 119 ± 44.6 | 0.96 | 4.32 |
